Assay results from EP2924037A1, “QUINAZOLINE DERIVATE AND USE THEREOF AS APOPTOSIS INHIBITOR” (Linx Pharmaceutical Co., Ltd., priority 2012, dated 2013).

Target: T1, pgk1 (Mus musculus, UniProt P09411)
T1 construct: His; made in house; host or cells: E. coli
T1 sequence (P09411 1-417): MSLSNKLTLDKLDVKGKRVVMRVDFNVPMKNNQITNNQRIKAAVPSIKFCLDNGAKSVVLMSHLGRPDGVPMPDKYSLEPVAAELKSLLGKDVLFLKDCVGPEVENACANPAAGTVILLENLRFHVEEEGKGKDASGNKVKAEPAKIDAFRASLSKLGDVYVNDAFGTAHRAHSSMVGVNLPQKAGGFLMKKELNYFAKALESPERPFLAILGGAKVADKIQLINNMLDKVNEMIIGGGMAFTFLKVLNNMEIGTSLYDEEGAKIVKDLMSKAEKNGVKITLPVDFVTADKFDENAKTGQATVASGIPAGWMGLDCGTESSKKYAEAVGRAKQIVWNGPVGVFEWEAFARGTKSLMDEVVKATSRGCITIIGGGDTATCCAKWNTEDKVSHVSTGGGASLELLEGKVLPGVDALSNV
Assay: Activity assay of pgk1 (GAPDH-coupled, absorbance at 340 nm)
Format: biochemical
Settings: 0.02 µg/ml; read-out: activation of pgk1 represented by fold changes
Experimental: The recombinant mouse pgk1 protein (His-pgk1) was expressed in the E. Coli. The protein was purified by a Nickel column. The proteins were diluted to 0.15 unit /mL. Then, different concentrations of terazosin were added to determine the pgk1 activity.
According to the components of Colorimetric GAPDH Assay Kit (ScienCells), the reaction solution was prepared with solutions of GAPDH, HEPES, and MgSO4. A predetermined concentration of the compound of Formula I was added to the reaction solution (30 mM Hepes, 3 mM ATP, 0.22 mM NADH, 10 mM MgSO4, 10 mM 3-PGA, 3-4 U/ml GAPDH, pH 7.5). Absorbance was measured at 25 °C with a spectroscope (340 nm). Relative activity of pgk1 was calculated based on the changes of absorbance value within 1-10 minutes. The activity has a positive correlation with the changes of absorbance value. The absorbance of the same compound at 340 nm was subtracted in the test group.

| SMILES | fold induction at 0.02 µg/mL |
| --- | --- |
| COc1cc2nc(N3CCN(C(=O)C4CCCO4)CC3)nc(NC(C)=O)c2cc1OC (centres unmarked) [Co.1] | 2.9 |
| COc1cc2nc(N3CCN(C(=O)C4CCCO4)CC3)nc(NCCOCCO)c2cc1OC (centres unmarked) [Co.2] | 2.3 |

Same assay, conditions: read-out: Activity* (the times of pgk1 activity induced by 0.02µg/ml of the tested compound)

| SMILES | fold induction at 0.02 µg/mL |
| --- | --- |
| C#CCNc1nc(N2CCN(C(=O)C3CCCO3)CC2)nc2cc(OC)c(OC)cc12 (centres unmarked) [Co.6] | 1.2 |
| CCCCCCNc1nc(N2CCN(C(=O)C3CCCO3)CC2)nc2cc(OC)c(OC)cc12 (centres unmarked) [Co.7] | 2.1 |
| COc1cc2nc(N3CCN(C(=O)C4CCCO4)CC3)nc(NC(C)=O)c2cc1OC (centres unmarked) [Co.1] | 2.9 |
| COc1cc2nc(N3CCN(C(=O)C4CCCO4)CC3)nc(NC(=O)C(F)(F)F)c2cc1OC (centres unmarked) [Co.13] | 1.8 |
| COc1cc2nc(N3CCN(C(=O)C4CCCO4)CC3)nc(NCCCCC(F)(F)F)c2cc1OC (centres unmarked) [Co.8] | 0.9 |
| COc1cc2nc(N3CCN(C(=O)C4CCCO4)CC3)nc(N3CCCCC3)c2cc1OC (centres unmarked) [Co.10] | 0.7 |
| COc1cc2nc(N3CCN(C(=O)C4CCCO4)CC3)nc(NN)c2cc1OC (centres unmarked) [Co.3] | 1.9 |
| COc1cc2nc(N3CCN(C(=O)C4CCCO4)CC3)nc(NCCOCCO)c2cc1OC (centres unmarked) [Co.2] | 2.3 |

More lines, now with the values ahead:

| fold induction at 0.02 µg/mL | SMILES |
| --- | --- |
| 1.7 | CCOCCOc1cc2nc(N3CCN(C(=O)C4CCCO4)CC3)nc(N)c2cc1OCCOCC (centres unmarked) [Co.16] |
| 2.6 | COc1cc2nc(N3CCN(C(=O)C4CCCO4)CC3)nc(Nc3ccccc3)c2cc1OC (centres unmarked) [Co.12] |
| 1.1 | COc1cc2c(N)nc(N3CCN(C(=O)C4CCCO4)CC3)nc2cc1OC(C)=O (centres unmarked) [Co.17] |
| 1.4 | Nc1nc(N2CCN(C(=O)C3CCCO3)CC2)nc2cc(N3CCCCC3)c(C(F)(F)F)cc12 (centres unmarked) [Co.19] |
| 2.4 | CCCc1cc2nc(N3CCN(C(=O)C4CCCO4)CC3)nc(N)c2cc1OC (centres unmarked) [Co.22] |
| 0.7 | COc1cc2c(N)nc(N3CCN(C(=O)C4CCCO4)CC3)nc2cc1NC(=O)c1ccccc1 (centres unmarked) [Co.23] |
| 2.1 | COc1cc2nc(N3CCN(C(=O)C4CCCO4)CC3)nc(N(C)CCOCCO)c2cc1OC (centres unmarked) [Co.11] |
| 1.8 | CCCCc1c(OC)c(OC)c(OC)c2c(N)nc(N3CCN(C(=O)C4CCCO4)CC3)nc12 (centres unmarked) [Co.30] |

System: cerebral thrombosis
Assay: Mouse model of cerebral thrombosis, infarct volume
Format: in vivo
Settings: 0.4 mg/kg i.p.; 6 mice per condition; t-test P<0.05
Experimental: In a mouse model of cerebral thrombosis, the mouse brains were stained after death from thrombosis. […] The statistical analysis was performed based on % infarct volume = white area/total area, 6 mice were tested for each condition. t-test, P<0.05.

| SMILES | infarct volume (% infarct volume = white area/total area) |
| --- | --- |
| CCOCCOc1cc2nc(N3CCN(C(=O)C4CCCO4)CC3)nc(N)c2cc1OCCOCC (centres unmarked) [Co.16] | effective to reduce the infarct volume |
| CCCCCCNc1nc(N2CCN(C(=O)C3CCCO3)CC2)nc2cc(OC)c(OC)cc12 (centres unmarked) [Co.7] | effective to reduce the infarct volume |
| COc1cc2nc(N3CCN(C(=O)C4CCCO4)CC3)nc(NC(C)=O)c2cc1OC (centres unmarked) [Co.1] | effective to reduce the infarct volume |
| COc1cc2nc(N3CCN(C(=O)C4CCCO4)CC3)nc(NC(=O)C(F)(F)F)c2cc1OC (centres unmarked) [Co.13] | effective to reduce the infarct volume |
| COc1cc2nc(N3CCN(C(=O)C4CCCO4)CC3)nc(NCCCCC(F)(F)F)c2cc1OC (centres unmarked) [Co.8] | effective to reduce the infarct volume |
| Nc1nc(N2CCN(C(=O)C3CCCO3)CC2)nc2cc(N3CCCCC3)c(C(F)(F)F)cc12 (centres unmarked) [Co.19] | effective to reduce the infarct volume |

System: sepsis models (LPS; Cecal Ligation and Puncture)
Assay: Effects against sepsis (LPS and CLP models), 7-day survival
Format: in vivo, BALB/C mice
Settings: i.p. once a day for 3 days at 0.4 mg/kg; 7-day period; P < 0.05 compared to negative controls
Experimental: After 1.5 hours, compounds were injected (i.p.) at a predetermined concentration. Mouse survival was examined every 12 hours for 7 days. Statistical significance of the difference in the survival rates was analyzed.
Another model is Cecal Ligation and Puncture (CLP) model of sepsis. Mice were anesthetized. A 1.5-2.0 cm long abdominal midline incision was made and the cecum was exposed. After ligation 5 mm from the cecal tip, the cecum was punctured once with a 22-gauge needle, and some stool was squeezed out. Then the cecum was put back into the abdomen and the abdomen was closed by running suture. After 1.5 hours, compounds were injected (i.p.) at a predetermined concentration. Mouse survival was examined every 12 hours for 7 days. Statistical significance of the difference in the survival rates was analyzed.
These compounds were individually injected (i.p.) once a day for 3 days at 0.4 mg/kg.

| SMILES | survival against sepsis |
| --- | --- |
| COc1cc2nc(N3CCN(C(=O)C4CCCO4)CC3)nc(NC(C)=O)c2cc1OC (centres unmarked) [Co.1] | significantly increased survival against sepsis |
| COc1cc2nc(N3CCN(C(=O)C4CCCO4)CC3)nc(NC(=O)C(F)(F)F)c2cc1OC (centres unmarked) [Co.13] | significantly increased survival against sepsis |

System: not listed separately
Assay: Effect on serum glucose in mice
Format: in vivo
Settings: Mus musculus, ip; 0.4 mg/kg i.p. once, measured 18 hours later; t-test P<0.01 for terazosin; read-out: reduction of the serum glucose level
Experimental: Mice were injected terazosin (0.4 mg/kg i.p.) once. The serum glucose level of the mice was measured 18 hours later. […] By the same method, exemplary compounds Co.1, Co.3, Co.7, Co.9, Co.13, Co.16, Co.19, Co.24, Co.27 and Co.32 as described in the present invention were all shown to be effective to reduce the serum glucose level by 20% to 50%.

| SMILES | inhibition in vivo at 0.4 mg/kg [%] |
| --- | --- |
| CCOCCOc1cc2nc(N3CCN(C(=O)C4CCCO4)CC3)nc(N)c2cc1OCCOCC (centres unmarked) [Co.16] | 20 to 50 |
| CCCCCCNc1nc(N2CCN(C(=O)C3CCCO3)CC2)nc2cc(OC)c(OC)cc12 (centres unmarked) [Co.7] | 20 to 50 |
| COc1cc2nc(N3CCN(C(=O)C4CCCO4)CC3)nc(NC(C)=O)c2cc1OC (centres unmarked) [Co.1] | 20 to 50 |
| COc1cc2nc(N3CCN(C(=O)C4CCCO4)CC3)nc(NC(=O)C(F)(F)F)c2cc1OC (centres unmarked) [Co.13] | 20 to 50 |
| Nc1nc(N2CCN(C(=O)C3CCCO3)CC2)nc2cc(N3CCCCC3)c(C(F)(F)F)cc12 (centres unmarked) [Co.19] | 20 to 50 |
| COc1cc2nc(N3CCN(C(=O)C4CCCO4)CC3)nc(NN)c2cc1OC (centres unmarked) [Co.3] | 20 to 50 |
